The test system of one data set is HUVEC. Briefly: SRB cytotoxicity assay, HUVEC. The note with it: Homo sapiens, non-malignant, endothelial, 72 h. The data set is classed as cell-based. As to the method:
(§1) All cell lines described herein were purchased from ATCC. […] Control cultures were treated with ethanol alone.

Data set [1] concerns all cell lines and cells tested. Briefly: SRB cytotoxicity assay, all cells of Table 3. The class given is cell-based. As to the method:
as §1

The test system of a further data set is SKOV-3. The data set can be described thus: SRB cytotoxicity assay, SKOV-3 cells. The class given is cell-based. To be noted: Homo sapiens, SK-OV-3, SKOV-3, malignant, ovarian, 72 h. As to the method: as §1
The test system of another data set is HT-29. The data set can be described thus: cells. To be noted: Homo sapiens; HT-29, malignant, colorectal; SRB, 72 h. The class given is cell-based. How it is done:
as §1

In the next data set the test system is 1A9. The data set can be described thus: SRB cytotoxicity assay, 1A9 cells. To be noted: Homo sapiens, 1A9, malignant, ovarian, 72 h. The data set is classed as cell-based. How it is done: as §1
The subject of the next data set is HaCat. Briefly: SRB cytotoxicity assay, HaCat cells. The data set is classed as cell-based. To be noted: Homo sapiens, immortalised, epidermal, 72 h. As to the method: as §1
The subject of another data set is OVCAR-3. Briefly: SRB cytotoxicity / proliferation assay, OVCAR-3 cells. The note with it: Homo sapiens, OVCAR-3, 72 h.
The next data set has as its system LN-18. Briefly: SRB cytotoxicity assay, LN-18 cells. The class given is cell-based, human. To be noted: Homo sapiens; LN-18, malignant, glial; SRB, 72 h. As to the method: as §1
A further data set has as its system MCF-7. The data set can be described thus: SRB cytotoxicity assay, MCF-7 cells. The data set is classed as cell-based. To be noted: Homo sapiens, MCF7, 72 h, MCF-7, malignant, breast. How it is done:
as §1

The next data set has as its system IGROV-1. Briefly: SRB cytotoxicity assay, IGROV-1 cells. The class given is cell-based. The note with it: Homo sapiens, IGROV-1, malignant, ovarian, 72 h. How it is done:
as §1

The test system of the next data set is A2780. The data set can be described thus: SRB cytotoxicity / proliferation assay, A2780 cells. To be noted: Homo sapiens, A2780, 72 h.
The next data set concerns CHO. The data set can be described thus: SRB cytotoxicity assay, CHO cells. The class given is cell-based. To be noted: Cricetulus griseus, immortalised, ovarian, 72 h. How it is done:
as §1

The structures appear in SMILES notation.

Method for A2780: (§2) Cells were seeded in 96-well plates (2,000-3,000 cells/well) and culture overnight prior to treatment with MPL. Control cultures were treated with ethanol alone.
Cells were seeded in 96-well plates (2,000-3,000 cells/well), treated with the indicated compound(s) for 72 h, fixed, washed and stained with 100 μl of 0.4% (w/v) SRB dissolved in 1% acetic acid. Unbound dye was removed by five washes with 1% acetic acid before air-drying.
Cell viability was conducted according to standard Trypan Blue method. Cell proliferation was assessed using the sulforhodamine B (SRB) assay. For viability experiments, cells were seeded in 6 well plates, whereas for proliferation assays cells were grown in 96 well plates. Following over-night attachment, cells were treated with the intended drug at various concentrations either alone or in combination with monepantel (MPL) for 72 h. Parallel to this, cells treated with MPL alone were also deployed for comparative purposes. Following incubation for 72 h in a standard cell culture incubator, effect of mono and combined drug treatments on cell viability and/or cell proliferation was assessed through using Trypan Blue or SRB assays respectively.
(§3) For viability assay, at the end of treatment period, cells were washed with PBS, trypsinized and counted using Trypan blue and hemocytometer. For the SRB assay cells were fixed, washed and stained with 100 μl of 0.4% (w/v) SRB dissolved in 1% acetic acid. Unbound dye was removed by five washes with 1% acetic acid before air drying. […] Monepantel (gift by Novartis, Basel, Switzerland) was dissolved in 100% ethanol and then diluted with the cell culture media.
Method for OVCAR-3: as §2
Cytotoxicity was assessed using the sulforhodamine B (SRB) assay and reported as half maximal inhibitory concentration (IC50; Table 3). Cells were seeded in 96-well plates (2,000-3,000 cells/well), treated with the indicated compound(s) for 72 h, fixed, washed and stained with 100 μl of 0.4% (w/v) SRB dissolved in 1% acetic acid. Unbound dye was removed by five washes with 1% acetic acid before air-drying.
In order to evaluate the effect of MPL on the in vitro efficacy of an established drug was evaluated using cell viability and cell proliferation assays. Cell viability was conducted according to standard Trypan Blue method. Cell proliferation was assessed using the sulforhodamine B (SRB) assay. For viability experiments, cells were seeded in 6 well plates, whereas for proliferation assays cells were grown in 96 well plates. Following over-night attachment, cells were treated with the intended drug at various concentrations either alone or in combination with monepantel (MPL) for 72 h. Parallel to this, cells treated with MPL alone were also deployed for comparative purposes. Following incubation for 72 h in a standard cell culture incubator, effect of mono and combined drug treatments on cell viability and/or cell proliferation was assessed through using Trypan Blue or SRB assays respectively.
as §3
MPL (5 μM) and combination drugs were applied for 72 h unless indicated.

Consider `C[C@](C#N)(COc1cc(C#N)ccc1C(F)(F)F)NC(=O)c1ccc(S(=O)(=O)C(F)(F)F)cc1` [MPL-SO2, monepantel sulphone], for which the IC50 in the data set with HUVEC stood at 47 µM; in the data set on SKOV-3, 26 µM; in the data set with HT-29, 2.8 ± 0.7 µM; with 1A9, 3.4 ± 0.1 µM; with HaCat, 42.7 ± 8 µM; in the data set with OVCAR-3 it was 5.5 ± 1.3 µM. In addition, the IC50 in the data set on LN-18 worked out at 6.6 ± 0.7 µM; in the data set with MCF-7, 8 ± 0.7 µM; in the data set with IGROV-1, 4.4 ± 1.5 µM; with A2780, 4.2 ± 2.1 µM; in the data set on CHO it was 73.7 ± 6.9 µM. For the same molecule, the “cytotoxicity compared with MPL” value in data set [1] is listed as “generally comparable to the parent compound”.

Source of the values: patent publication US9833431B2, “Pharmaceutical combinations for the treatment of cancer” (Pitney Pharmaceuticals Pty Limited, priority 2013, dated 2017).
